Where two headings read alike, the source gives them in different places.
What was measured:
MMC2 = assay: MTT cytotoxicity in NER-deficient cells, 72 h; type: cell-based, Chinese hamster; settings: for Index F: IC50(CHOK1)/IC50(MMC2); for IC50: MMC2 (NER deficient), MTT, 72 h
Excerpt: The cytotoxicity assay was also employed to determine whether DNA damage might be involved in the mechanism of action of the tested compounds. The Chinese hamster ovary MMC2 cell line harbors the ERCC3/XPB mutation, which renders it deficient in nucleotide excision repair (NER), whereas the parent line CHOK1 is proficient in this repair process. Thus, the MMC2 line is often more sensitive to agents causing DNA damage, especially NER-reparable DNA damage, than CHOK1. […] Phosphorylation of H2AX is a commonly used marker of DNA damage. […]

[1] = test system: normal (noncancerous) cells MRC-5, IMR-90, hTERT-HPNE, MCF10A; assay: MTT, noncancerous cell lines (average, selectivity index); type: cell-based, human; settings: for SI, selectivity index: IC50(normal cells)/averageIC50(cancer cells); for IC50: average over MRC-5, IMR-90, hTERT-HPNE, MCF10A, read-out: av norm (average IC50 in noncancerous cells)
Procedure: Growth inhibition activity in cancer cell lines was compared with the activity to inhibit the proliferation of normal (noncancerous) cells, namely MRC-5, IMR-90, hTERT-HPNE, and MCF10A cells. Selectivity indexes (SI) were calculated as (IC50 in noncancerous cells)/(average IC50 in cancer cells). […] We further assessed the toxicity of several of the compounds in hepatocyte-like cells (HLC) generated from human pluripotent cells. […]

MDA-MB-231 = assay: MTT cytotoxic/antiproliferative activity, 72 h; type: cell-based, human; settings: MDA-MB-231, MTT, 72 h
A549 = assay: MTT cytotoxic/antiproliferative activity, 72 h; type: cell-based, human; settings: A549, MTT, 72 h
[2] = Stability in RPMI cell culture medium with serum (HPLC); settings: for intact Pt(IV) prodrug still present: after 3 days in the media
Procedure: Two conditions must be met for Pt(IV) complexes to serve as true prodrugs: they must remain stable in biological fluids and should be activated by reduction within the cancer cells to release the bioactive components in their active form, thereby facilitating the rapid onset of cytotoxic effects. […] The reduction in the area of the HPLC peak of the compounds was monitored as a function of time, and their half-lives were calculated (Table and Figures S26,S27).
The stock solutions were prepared by dissolving the compounds in a 1:9 (v/v) mixture of DMSO and RPMI media. After preparation, the samples were injected and stored at 37 °C throughout the experiment. The final concentration of the complexes used for the experiment is 50–60 μM.

RD = assay: MTT cytotoxic/antiproliferative activity, 72 h; type: cell-based, human; settings: MTT, 72 h
[3] = test system: panel of six cancer cell lines; assay: MTT, panel of six cancer cell lines (average, ranges); type: cell-based, human; settings: average over six cancer cell lines, read-out: av cancer (average IC50 in cancer cells)
Procedure: (§1) A panel of six cancer cell lines was used to evaluate the cytotoxic potential of the investigated compounds.
(§2) Cytotoxicity in hepatocyte-like cells (HLC). STEMdiff Hepatocyte Kit was used to generate HLC from human pluripotent stem cells. Cytotoxicity of several of the tested compounds in HLC was evaluated using the sulphorhodamine B assay.

MRC-5 = assay: MTT cytotoxicity in noncancerous cells, 72 h; type: cell-based, human
Procedure: (§3) Growth inhibition activity in cancer cell lines was compared with the activity to inhibit the proliferation of normal (noncancerous) cells, namely MRC-5, IMR-90, hTERT-HPNE, and MCF10A cells. Selectivity indexes (SI) were calculated as (IC50 in noncancerous cells)/(average IC50 in cancer cells). […] We further assessed the toxicity of several of the compounds in hepatocyte-like cells (HLC) generated from human pluripotent cells.
as §2

MCF10A = assay: MTT cytotoxicity in noncancerous cells, 72 h; type: cell-based, human
Procedure: as §3, §2

hTERT-HPNE = assay: MTT cytotoxicity in noncancerous cells, 72 h; type: cell-based, human
Procedure: as §3, §2

IMR-90 = assay: MTT cytotoxicity in noncancerous cells, 72 h; type: cell-based, human; settings: IMR-90, MTT
Procedure: as §3, §2

HCT116 = assay: MTT cytotoxic/antiproliferative activity, 72 h; type: cell-based, human; settings: HCT116, MTT, 72 h
U87-MG = assay: MTT cytotoxic/antiproliferative activity, 72 h; type: cell-based, human; settings: MTT, 72 h
Procedure: as §1, §2

[4] = Reduction by L-ascorbic acid in phosphate buffer (RP-HPLC); type: physicochemical; settings: 10 equiv L-ascorbic acid, 10% DMSO in 100 mM phosphate buffer pH 7.4, 37 °C
Procedure: The reduction of Pt(IV) complexes was performed by reacting with 10 equiv of L-ascorbic acid in 10% DMSO in 100 mM phosphate buffer (pH 7.4) at 37 °C, and was monitored by reverse-phase analytical HPLC. The half-lives for the reduction were calculated from the decreasing peak areas as a function of time.
The reduction of the Pt(IV) complexes was performed in the presence of 10 equiv of L-ascorbic acid (AA) in phosphate buffer (100 mM, pH 7.4) at 37 °C using reverse-phase analytical HPLC. […] The platinum complexes were dissolved in 10% DMSO with 50% MeOH and added to 100 mM phosphate buffer (pH 7.4). […] The samples were injected and stored at 37 °C throughout the experiment.

CHOK1 = assay: MTT cytotoxicity in NER-proficient cells, 72 h; type: cell-based, Chinese hamster
Excerpt: The cytotoxicity assay was also employed to determine whether DNA damage might be involved in the mechanism of action of the tested compounds. The Chinese hamster ovary MMC2 cell line harbors the ERCC3/XPB mutation, which renders it deficient in nucleotide excision repair (NER), whereas the parent line CHOK1 is proficient in this repair process. Thus, the MMC2 line is often more sensitive to agents causing DNA damage, especially NER-reparable DNA damage, than CHOK1. […] Phosphorylation of H2AX is a commonly used marker of DNA damage.
as §2

NCI-H2228 = assay: MTT cytotoxic/antiproliferative activity, 72 h; type: cell-based, human; settings: NCI-H2228, MTT, 72 h
CT26 cell line = assay: MTT cytotoxic/antiproliferative activity, 72 h; type: cell-based, murine; settings: Mus musculus
A549 spheroids = assay: Cytotoxicity in 3D spheroids, CellTiter-Glo 3D; type: cell-based, human; settings: Homo sapiens, A549 3D spheroids, 96 h
Procedure: (§4) In the 3D structure, the gradients of gases, nutrients, and therapeutics play a role in the final cytotoxicity of a compound.
(§5) A549 and NCI-H2228 cells were seeded in ultralow attachment, U-shape plates (Corning) at a density of 800 cells/well in the tumorsphere medium consisting of DMEM/F12 medium (Sigma), fibroblast growth factor (20 ng/mL; Sigma), epidermal growth factor 2 (10 ng mL^–1; Sigma), B27 supplement (1×; Gibco), bovine serum albumin, bovine serum albumin (BSA) (1.5 mg mL^–1; Sigma). […] CellTiter-Glo 3D viability assay was used for the experiment evaluation following the manufacturer’s instructions. The bioluminescence signal, proportional to the number of living cells, was measured using the luminescence reader SPARK, and IC50 values were calculated.

NCI-H2228 spheroids = assay: Cytotoxicity in 3D spheroids, CellTiter-Glo 3D; type: cell-based, human; settings: Homo sapiens, NCI-H2228 3D spheroids, 96 h
Procedure: as §4, §5

[5] = Cytotoxicity in hepatocyte-like cells, sulphorhodamine B assay; type: cell-based; settings: hepatocyte-like cells from human pluripotent cells
Procedure: as §3, §2

[6] = 10% DMSO in RPMI cell culture medium containing serum, 37 °C, HPLC

SMILES	Index F (MMC2)	IC50 (MMC2)	SI, selectivity index [1]	IC50 [1]	IC50 (MDA-MB-231)	IC50 (A549)	stability half-life (t 1/2) [2, 6]	IC50 (RD)	IC50 [3]	IC50 (MRC-5; MRC-5, MTT)	IC50 (MCF10A)	IC50 (hTERT-HPNE)	IC50 (IMR-90)	IC50 (HCT116)	IC50 (U87-MG)	reduction half-life (t 1/2) [4]	IC50 (CHOK1)	IC50 (NCI-H2228)	intact Pt(IV) prodrug still present ([2]; 37 °C)	stability half-life (t 1/2) ([2]; serum)	other results
Cc1cc(Nc2ncc(Cl)c(Nc3ccccc3S(=O)(=O)C(C)C)n2)c(OC(C)C)cc1C1CCN(C(=O)[O][Pt]([OH])([Cl])[Cl])CC1.N.N [compound 6, ctc-[Pt(NH3)2(ceritinib)(OH)Cl2]]	3.79(*)	290 ± 90 nM	4.8	3000 nM	1100 ± 300 nM	350 ± 60 nM	48 h	600 ± 200 nM	630 nM	2600 ± 900 nM	2600 ± 200 nM	2700 ± 500 nM	4100 ± 900 nM	700 ± 300 nM	800 ± 200 nM	2.2 h	1100 ± 200 nM	210 ± 60 nM			
Cc1cc(Nc2ncc(Cl)c(Nc3ccccc3S(=O)(=O)C(C)C)n2)c(OC(C)C)cc1C1CCN(C(=O)[O][Pt]2([O]C(=O)CCCc3ccccc3)[O]C(=O)C(=O)[O]2)CC1.N[C@@H]1CCCC[C@H]1N [compound 8, ctc-[Pt(DACH)(ceritinib)(PhB)(Ox)]]	1.22	900 ± 200 nM	2.5	3300 nM	1500 ± 400 nM	1300 ± 200 nM	>75 h	2200 ± 400 nM	1300 nM	2300 ± 600 nM	2900 ± 400 nM	3100 ± 600 nM	5000 ± 600 nM	880 ± 60 nM		12.5 h	1100 ± 200 nM	800 ± 300 nM	> 65%		
C[C@@H](Oc1cc(-c2cnn(C3CCN(C(=O)[O][Pt]4([O]C(=O)CCCc5ccccc5)[O]C(=O)C(=O)[O]4)CC3)c2)cnc1N)c1c(Cl)ccc(F)c1Cl.N[C@@H]1CCCC[C@H]1N [compound 4, ctc-[Pt(DACH)(crizotinib)(PhB)(Ox)]]	1.08	1300 ± 400 nM	1.9	2900 nM	1500 ± 500 nM	1500 ± 400 nM		1600 ± 200 nM	1500 nM	3100 ± 900 nM	2400 ± 500 nM	3200 ± 600 nM	2900 ± 400 nM	1000 ± 200 nM	1800 ± 400 nM	11.5 h	1400 ± 400 nM	1300 ± 400 nM	more than 80%	>75 h	
CC(Oc1cc(-c2cnn(C3CCN(C(=O)[O][Pt]([OH])([Cl])[Cl])CC3)c2)cnc1N)c1c(Cl)ccc(F)c1Cl.N.N (stereo not shown) [compound 2, ctc-[Pt(NH3)2(crizotinib)(OH)Cl2]]	1.95	770 ± 90 nM	3.4	5500 nM	1900 ± 600 nM	800 ± 100 nM		2000 ± 400 nM	1600 nM	4200 ± 900 nM	5100 ± 600 nM	5200 ± 600 nM	7400 ± 700 nM	2100 ± 500 nM	2000 ± 700 nM	2.7 h	1500 ± 600 nM	740 ± 80 nM		75 h	
C[C@@H](Oc1cc(-c2cnn(C3CCNCC3)c2)cnc1N)c1c(Cl)ccc(F)c1Cl [compound 1, crizotinib]																					IC50 (MMC2; Cricetulus griseus): 1400 ± 300 nM; IC50 ([1]; Homo sapiens): 6300 nM; IC50 (CT26 cell line): 1800 ± 400 nM; IC50 (MDA-MB-231; Homo sapiens): 1200 ± 300 nM; IC50 (A549; Homo sapiens): 1000 ± 200 nM; IC50 (A549 spheroids): 3000 ± 1000 nM; IC50 (NCI-H2228 spheroids): 1500 ± 300 nM; IC50 (RD; Homo sapiens): 1400 ± 400 nM; IC50 ([3]; Homo sapiens): 1700 nM; IC50 (MRC-5; Homo sapiens, MRC5, MRC-5, MTT): 4300 ± 300 nM; IC50 (MCF10A; Homo sapiens, MCF-10A): 6400 ± 700 nM; IC50 (hTERT-HPNE; Homo sapiens): 6900 ± 800 nM; IC50 (IMR-90; Homo sapiens): 7600 ± 900 nM; IC50 (HCT116; Homo sapiens, HCT-116): 1900 ± 500 nM; IC50 (U87-MG; Homo sapiens, U-87 MG): 3900 ± 500 nM; IC50 [5]: 9000 ± 3000 nM; IC50 (CHOK1; Cricetulus griseus, CHO-K1): 1300 ± 500 nM; IC50 (NCI-H2228; Homo sapiens): 820 ± 70 nM
